Results published in patent publication US7482308B2, “Difluoromethanesulfonyl anilide derivatives useful as herbicides” (Bayer CropScience AG, priority 2004, dated 2009).

How the values were obtained:
Format in all cases: in vivo
[1] = system: Scirpus juncoides Roxburgh; assay: Test for residual effectiveness against paddy field weeds (Test Example 2); details: 60 g ai/ha; period of maintaining herbicidal effect of higher than 80%
From the text: (§1) In a green house a 1000 cm^2 pot was filled with paddy field soil and water was poured to a depth of about 2 to 3 cm. A prescribed, diluted solution of the above-mentioned Test Example 1, was applied to the surface of water. After the prescribed time after the treatment (just after treatment, 1 week, 2 weeks, 3 weeks, 4 weeks, 5 weeks, 6 weeks and 7 weeks after treatment), seeds or tubers of the weeds to be tested Scirpus juncoides Roxburgh, Monochoria vaginalis Presi, annual broad-leaved weeds (Lindernia procumbens Philcox, Rotala indica Koehne, Elatine triandra Schk, Ammannia multiflora Roxb., etc.), Cyperus serotinus Rottboel and Sagittaria pygmaea Miq. were inoculated. Three weeks after the inoculation each herbicidal effect was examined.
(§2) The evaluation of the residual effectiveness was shown as the period (number of weeks) of maintaining herbicidal effect of higher than 80%, after the evaluation of herbicidal effect had been conducted in the similar manner as the above-mentioned Test Example 1.

[2] = system: Cyperus serotinus Rottboel; assay: as above; details: 60 g ai/ha; period of maintaining herbicidal effect of higher than 80%
From the text: as §1, §2

[3] = system: annual broad-leaved weeds; assay: as above; details: 60 g ai/ha; period of maintaining herbicidal effect of higher than 80%
From the text: as §1, §2

Sagittaria pygmaea Miq. = assay: as above; details: 60 g ai/ha; period of maintaining herbicidal effect of higher than 80%
From the text: as §1, §2

[4] = system: Monochoria vaginalis Presi; assay: as above; details: 60 g ai/ha; period of maintaining herbicidal effect of higher than 80%
From the text: as §1, §2

[5] = system: Scirpus juncoides Roxburgh; assay: Test for herbicidal effect against paddy field weeds (Test Example 1); details: examined 3 weeks after treatment
Description: (§3) Preparation of Formulation of the Active Compound
(§4) • Carrier: DMF 5 parts by weight • Emulsifier: Benzyloxy polyglycol ether 1 part by weight
(§5) A formulation of an active compound is obtained as an emulsifiable concentrate by mixing 1 part by weight of the active compound with the above-mentioned amount of the carrier and emulsifier. A prescribed amount of the formulation is diluted with water.
(§6) In a green house seeds or tubers of Scirpus juncoides Roxburgh, Monochoria vaginalis Presi, annual broad-leaved weeds (Lindemia procumbens Philcox, Rotala indica Koehne, Elatine triandra Schk, Ammannia multiflora Roxb., etc.), Cyperus serotinus Rottboel were inoculated in a 500 cm^2 pot filled with paddy field soil. Then water was poured to a depth of about 2-3 cm. Five days and 13 days after inoculation, a prescribed, diluted solution of the formulation of each active compound, prepared according to the aforementioned preparation method, was applied to the surface of water. After the treatment the water depth of 3 cm was maintained and the herbicidal effect was examined after 3 weeks from the treatment.
(§7) The herbicidal effect was rated 100% in the case of complete death and as 0% in the case of no herbicidal effect. In case of showing higher than 80% herbicidal effect, it is evaluated as practical as herbicide.

[6] = system: Cyperus serotinus Rottboel; assay: as above; details: examined 3 weeks after treatment
Description: as §3, §4, §5, §6, §7

[7] = system: annual broad-leaved weeds; assay: as above; details: examined 3 weeks after treatment
Description: as §3, §4, §5, §6, §7

[8] = system: Monochoria vaginalis Presi; assay: as above; details: examined 3 weeks after treatment
Description: as §3, §4, §5, §6, §7

[9] = system: sulfonylurea resistant Elatine triandra Schk (collected in Kazo area, Saitama Pref.); assay: Test for herbicidal effect against sulfonylurea resistant weeds (Test Example 3); details: applied at beginning of emergence, examined 3 weeks after treatment
From the text: (§8) In a green house seeds of Scirpus juncoides Roxburgh (collected in Iwamizawa area, Hokkaido), Lindernia procumbens Philcox (collected in Kazo area, Saitama Pref.), Lindernia procumbens Philcox (collected in Higashi-Hiroshima area, Hiroshima Pref.), Elatine triandra Schk (collected in Kazo area, Saitama Pref.), all of which were confirmed as sulfonylurea resistant, were inoculated in a 20 cm^2 cup filled with paddy field soil. Then water was poured to a depth of about 2 to 3 cm. At the beginning of emergence of each weed, a prescribed, diluted solution of the formulation of each active compound prepared in the same manner as the above-mentioned Test Example 1 was applied to the surface of water. After the treatment the water depth of 3 cm was maintained and the herbicidal effect was examined after 3 weeks from the treatment. The evaluation of the herbicidal effect was conducted in the same manner as the above-mentioned Test Example 1. In case of showing higher than 80% herbicidal effect, it is evaluated as practical as herbicide. In consideration of the possibility that the biological properties including herbicide resistance of the plants grown in different areas might be different, sulfonylurea resistant Lindernia procumbens Philcox collected in two different areas were used in the present tests. The study results with the compounds No. 1, 3, 11 and 17 and the comparative compound No. C-1 as specific examples are shown in the following Table 6.

[10] = system: sulfonylurea resistant Lindernia procumbens Philcox (collected in Higashi-Hiroshima area, Hiroshima Pref.); assay: as above; details: applied at beginning of emergence, examined 3 weeks after treatment
From the text: as §8

[11] = system: sulfonylurea resistant Lindernia procumbens Philcox (collected in Kazo area, Saitama Pref.); assay: as above; details: applied at beginning of emergence, examined 3 weeks after treatment
From the text: as §8

[12] = system: sulfonylurea resistant Scirpus juncoides Roxburgh (collected in Iwamizawa area, Hokkaido); assay: as above; details: applied at beginning of emergence, examined 3 weeks after treatment
From the text: as §8

[13] = system: transplanted rice (var. Nipponbare); assay: Test for phytotoxicity to transplanted rice (Test Example 4); details: 60 g ai/ha, application 5 days after transplanting, examined 2 weeks after treatment
Description: The phytotoxicity to transplanted rice was evaluated under the conditions with more shallow planting depths than usual depth of 2 cm, simulating the severe condition for herbicides to cause rice injury in the paddy. In a greenhouse 2 to 2.5 leaf-stage of rice (var. Nipponbare) was transplanted at three different depths, in a 1000 cm^2 pot filled with paddy field soil. Then water was poured to a depth of about 2 to about 3 cm. Five days after transplanting, a prescribed, diluted solution of the formulation of each active compound, prepared in the same manner as the above-mentioned Test Example 1, was applied to the surface of water. After the treatment the water depth of 3 cm was maintained and the rice injury was examined after 2 weeks from the treatment. The rice injury was rated 100% in the case of complete death and as 0% in the case of no injury. In case of showing less than 20% injury, it is evaluated as practical as rice herbicide.

[14] = 15 g ai/ha, application 5 days after inoculation
[15] = 15 g ai/ha, application 13 days after inoculation
[16] = 30 g ai/ha, application 5 days after inoculation
[17] = 30 g ai/ha, application 13 days after inoculation

SMILES | period showing sufficient residual herbicidal effectiveness Scirpus juncoides [1] | period showing sufficient residual herbicidal effectiveness Cyperus serotinus [2] | period showing sufficient residual herbicidal effectiveness broad-leaved weeds [3] | period showing sufficient residual herbicidal effectiveness Sagittaria pygmaea (Sagittaria pygmaea Miq.) | period showing sufficient residual herbicidal effectiveness Monochoria vaginalis [4] | herbicidal effect Scirpus juncoides [5, 14] | herbicidal effect Scirpus juncoides [5, 15] | herbicidal effect Scirpus juncoides [5, 16] | herbicidal effect Scirpus juncoides [5, 17] | herbicidal effect Cyperus serotinus [6, 14] | herbicidal effect Cyperus serotinus [6, 15] | herbicidal effect Cyperus serotinus [6, 16] | herbicidal effect Cyperus serotinus [6, 17] | herbicidal effect broad-leaved weeds [7, 14] | herbicidal effect broad-leaved weeds [7, 15] | herbicidal effect broad-leaved weeds [7, 16] | herbicidal effect broad-leaved weeds [7, 17] | herbicidal effect Monochoria vaginalis [8, 14] | herbicidal effect Monochoria vaginalis [8, 15] | herbicidal effect Monochoria vaginalis [8, 16] | other results
COc1cc(OC)nc(C(O)c2cccc(F)c2NS(=O)(=O)C(F)F)n1 (stereo not drawn) [Compound 1, 2-fluoro-6-[(4,6-dimethoxypyrimidin-2-yl)hydroxymethyl]-N-difluoromethanesulfonanilide] | 6 week | 3 week | 3 week | 3 week | 4 week | 100% | 100% | 100% | 100% | 100% | 95% | 100% | 100% | 100% | 95% | 100% | 100% | 100% | 100% | 100% | herbicidal effect Monochoria vaginalis [8, 17]: 100%; herbicidal effect against sulfonylurea resistant weeds Elatine triandra (collected in Kazo area, Saitama Pref.) ([9]; 30 g ai/ha): 100%; herbicidal effect against sulfonylurea resistant weeds Elatine triandra (collected in Kazo area, Saitama Pref.) ([9]; 60 g ai/ha): 100%; herbicidal effect against sulfonylurea resistant weeds Lindernia procumbens (collected in Higashi-Hiroshima area, Hiroshima Pref.) ([10]; 30 g ai/ha): 100%; herbicidal effect against sulfonylurea resistant weeds Lindernia procumbens (collected in Higashi-Hiroshima area, Hiroshima Pref.) ([10]; 60 g ai/ha): 100%; herbicidal effect against sulfonylurea resistant weeds Lindernia procumbens (collected in Kazo area, Saitama Pref.) ([11]; 30 g ai/ha): 95%; herbicidal effect against sulfonylurea resistant weeds Lindernia procumbens (collected in Kazo area, Saitama Pref.) ([11]; 60 g ai/ha): 100%; herbicidal effect against sulfonylurea resistant weeds Scirpus juncoides (collected in Iwamizawa area, Hokkaido) ([12]; 30 g ai/ha): 100%; herbicidal effect against sulfonylurea resistant weeds Scirpus juncoides (collected in Iwamizawa area, Hokkaido) ([12]; 60 g ai/ha): 100%
COc1cc(OC)nc(C(O)c2cccc(F)c2NS(=O)(=O)C(F)(F)F)n1 (stereo not drawn) [Compound C-1, reference compound] | 2 week | 1 week | <1 week | 1 week | <1 week | 70% | 60% | 80% | 70% | 70% | 60% | 80% | 60% | 50% | 40% | 80% | 60% | 60% | 50% | 80% | herbicidal effect Monochoria vaginalis [8, 17]: 60%; herbicidal effect against sulfonylurea resistant weeds Elatine triandra (collected in Kazo area, Saitama Pref.) ([9]; 30 g ai/ha): 60%; herbicidal effect against sulfonylurea resistant weeds Elatine triandra (collected in Kazo area, Saitama Pref.) ([9]; 60 g ai/ha): 70%; herbicidal effect against sulfonylurea resistant weeds Lindernia procumbens (collected in Higashi-Hiroshima area, Hiroshima Pref.) ([10]; 30 g ai/ha): 50%; herbicidal effect against sulfonylurea resistant weeds Lindernia procumbens (collected in Higashi-Hiroshima area, Hiroshima Pref.) ([10]; 60 g ai/ha): 80%; herbicidal effect against sulfonylurea resistant weeds Lindernia procumbens (collected in Kazo area, Saitama Pref.) ([11]; 30 g ai/ha): 40%; herbicidal effect against sulfonylurea resistant weeds Lindernia procumbens (collected in Kazo area, Saitama Pref.) ([11]; 60 g ai/ha): 60%; herbicidal effect against sulfonylurea resistant weeds Scirpus juncoides (collected in Iwamizawa area, Hokkaido) ([12]; 30 g ai/ha): 60%; herbicidal effect against sulfonylurea resistant weeds Scirpus juncoides (collected in Iwamizawa area, Hokkaido) ([12]; 60 g ai/ha): 70%; phytotoxicity to transplanted rice depth 0.5 cm ([13]; planting depth 0.5 cm): 35%; phytotoxicity to transplanted rice depth 2 cm ([13]; planting depth 2 cm): 20%
